# Source: patent US20140011799A1 (Bristol-Myers Squibb Company, priority 2012, published 2014)
# Molecular target: T1, Endothelial lipase (EL) (Homo sapiens, UniProt Q9Y5X9)
# T1 construct: HT-1080 cells that were transformed using RAGE technology (Athersys) to overexpress endogenous EL; endogenous in cells; conditioned medium used
# T1 sequence (Q9Y5X9 21-500): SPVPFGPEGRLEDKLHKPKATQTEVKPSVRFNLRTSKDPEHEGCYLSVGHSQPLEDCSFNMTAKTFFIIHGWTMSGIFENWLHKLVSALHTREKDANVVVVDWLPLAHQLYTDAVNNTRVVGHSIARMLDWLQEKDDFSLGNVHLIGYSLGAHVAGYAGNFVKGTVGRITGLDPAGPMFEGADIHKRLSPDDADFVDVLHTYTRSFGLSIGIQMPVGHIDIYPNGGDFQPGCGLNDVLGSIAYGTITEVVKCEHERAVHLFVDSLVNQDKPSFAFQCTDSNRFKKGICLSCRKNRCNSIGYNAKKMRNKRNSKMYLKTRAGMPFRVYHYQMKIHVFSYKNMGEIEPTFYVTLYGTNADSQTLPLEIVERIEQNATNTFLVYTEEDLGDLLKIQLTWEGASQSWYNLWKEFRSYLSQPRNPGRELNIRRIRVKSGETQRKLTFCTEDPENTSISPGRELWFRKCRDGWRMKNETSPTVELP
# Test: Endothelial lipase (EL) enzymatic assay, fluorescent substrate A10070 in DMPG vesicles
# Assay type: biochemical
# Settings: EL from conditioned media of HT-1080 cells; compound preincubated 30 min at 37° C; read-out: EL IC50
# How it was run: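 Substrate A10070 sits in sonicated DMPG vesicles at 0.11 mole fraction. Lipase and compound preincubated 30 min, 37° C, in HEPES pH 8.0 buffer with CaCl2.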
row,IC50 [nM],Compound
1,< 10,"CC(C)(C)OC(=O)NCc1nnc(C(c2nc3ccc(-c4ccccc4)cc3s2)S(C)(=O)=O)o1 (stereo not drawn) [Example 83, tert-Butyl ((5-((methylsulfonyl)(6-phenylbenzo[d]thiazol-2-yl)methyl)-1,3,4-oxadiazol-2-yl)methyl)carbamate]"
2,< 10,"CS(=O)(=O)C(c1nnc(CC2SC(=O)NC2=O)o1)c1nc2ccc(-c3ccccc3)cc2s1 (stereo not drawn) [Example 31, 5-((5-((methylsulfonyl) (6-phenyl-1,3-benzothiazol-2-yl)methyl)-1,3,4-oxadiazol-2-yl)methyl)-1,3-thiazolidine-2,4-dione]"
3,5200,"CC(c1nnc(CNS(N)(=O)=O)o1)(c1nc2ccc(-c3ccccc3)cc2s1)S(C)(=O)=O (single isomer, unassigned) [Reference 1, Isomer B, N-((5-(1-(Methylsulfonyl)-1-(6-phenyl-1,3-benzothiazol-2-yl)ethyl)-1,3,4-oxadiazol-2-yl)methyl)sulfamide, reference compound]"
4,< 10,"NS(=O)(=O)NCc1nnc(C(c2nc3ccc(-c4ccccc4)cc3s2)S(=O)(=O)C2CC2)o1 (stereo not drawn) [Example 74, N-({5-[(cyclopropylsulfonyl) (6-phenyl-1,3-benzothiazol-2-yl)methyl]-1,3,4-oxadiazol-2-yl}methyl) sulfuric diamide]"
5,3750,"CC(c1nnc(CNS(N)(=O)=O)o1)(c1nc2ccc(-c3ccccc3)cc2s1)S(C)(=O)=O (single isomer, unassigned) [Reference 1, Isomer A, N-((5-(1-(Methylsulfonyl)-1-(6-phenyl-1,3-benzothiazol-2-yl)ethyl)-1,3,4-oxadiazol-2-yl)methyl)sulfamide, reference compound]"
6,46,"CCNC(=O)NCc1nnc(C(c2nc3ccc(-c4ccccc4)cc3s2)S(C)(=O)=O)o1 (stereo not drawn) [Example 87, 1-Ethyl-3((5-((methylsulfonyl)(6-phenylbenzo[d]thiazol-2-yl)methyl)-1,3,4-oxadiazol-2-yl)methyl)urea]"
7,< 10,"NS(=O)(=O)NCc1nnc(C(c2nc3ccc(-c4ccccc4)cc3s2)S(=O)(=O)Cc2cc(C(F)(F)F)cc(C(F)(F)F)c2)o1 (stereo not drawn) [Example 72, N-((5-(((3,5-bis (trifluoromethyl)benzyl)sulfonyl) (6-phenyl-1,3-benzothiazol-2-yl)methyl)-1,3,4-oxadiazol-2-yl)methyl)sulfamide]"
8,< 10,"O=S(=O)(CCC(F)(F)F)NS(=O)(=O)Cc1nnc(C(c2nc3ccc(-c4ccccc4)cc3s2)S(=O)(=O)CCC(F)(F)F)o1 (stereo not drawn) [Example 36, 3,3,3-trifluoro-N-(((5-((6-phenylbenzo[d]thiazol-2-yl)((3,3,3-trifluoropropyl)sulfonyl)methyl)-1,3,4-oxadiazol-2-yl)methyl)sulfonyl)propane-1-sulfonamide]"
9,< 10,"CC(C)(C)OC(=O)N(Cc1nnc(C(c2nc3ccc(-c4ccccc4)cc3s2)S(C)(=O)=O)o1)S(C)(=O)=O (stereo not drawn) [Example 84, tert-Butyl methylsulfonyl((5-((methylsulfonyl)(6-phenylbenzo[d]thiazol-2-yl)methyl)-1,3,4-oxadiazol-2-yl)methyl)carbamate]"
10,< 10,"CS(=O)(=O)C(c1nnc(CNS(N)(=O)=O)o1)c1nc2ccc(-c3ccccc3)cc2s1 (stereo not drawn) [Example 46, N-({5-[(M ethylsulfonyl)(6-phenyl-1,3-benzothiazol-2-yl)methyl]-1,3,4-oxadiazol-2-yl}methyl)sulfuric diamide]"
11,57,"CN1CCN(C(=O)c2ccc(-c3ccc4nc(C(c5nnc(CNS(N)(=O)=O)o5)S(C)(=O)=O)sc4c3)cc2)CC1 (stereo not drawn) [Example 80, N-((5-((6-(4-((4-methyl-1-piperazinyl)carbonyl)phenyl)-1,3-benzothiazol-2-yl)(methylsulfonyl)methyl)-1,3,4-oxadiazol-2-yl)methyl)sulfamide]"

# Further lines, the compound ahead of its results:
row,Compound,IC50 [nM]
1,"NS(=O)(=O)NCc1nnc(C(c2nc3ccc(-c4ccccc4)cc3s2)S(=O)(=O)Cc2ccccc2)o1 (stereo not drawn) [Example 47, N-((5-((benzylsulfonyl) (6-phenyl-1,3-benzothiazol-2-yl)methyl)-1,3,4-oxadiazol-2-yl)methyl)sulfamide]",< 10
2,"Cc1noc(C)c1-c1ccc2nc(C(c3nnc(CC4SC(=O)NC4=O)o3)S(C)(=O)=O)sc2c1 (stereo not drawn) [Example 19, 5-((5-((6-(3,5-dimethylisoxazol-4-yl)benzo[d]thiazol-2-yl)(methylsulfonyl)methyl)-1,3,4-oxadiazol-2-yl)methyl) thiazolidine-2,4-dione]",< 10
3,"NS(=O)(=O)NCc1nnc(C(c2nc3ccc(-c4ccccc4)cc3s2)S(=O)(=O)Cc2cccc(F)c2)o1 (stereo not drawn) [Example 56, N-((5-(((3-fluorobenzyl)sulfonyl)(6-phenyl-1,3-benzothiazol-2-yl)methyl)-1,3,4-oxadiazol-2-yl)methyl)sulfamide]",< 10
4,"NS(=O)(=O)Cc1nnc(C(c2nc3c(F)cc(-c4ccccc4)cc3s2)S(=O)(=O)Cc2ccc(C(F)(F)F)cc2)o1 (stereo not drawn) [Example 90, (5-((4-Fluoro-6-phenylbenzo[d]thiazol-2-yl)((4-(trifluoromethyl)benzyl)sulfonyl)methyl)-1,3,4-oxadiazol-2-yl)methanesulfonamide]",< 10
5,NS(=O)(=O)NCc1nnc(C(c2nc3ccc(-c4ccccc4)cc3s2)S(=O)(=O)Cc2cccc(Br)c2)o1 (stereo not drawn) [Example 57],< 10
6,"NS(=O)(=O)NCc1nnc(C(c2nc3ccc(-c4ccccc4)cc3s2)S(=O)(=O)CCC(F)(F)F)o1 (stereo not drawn) [Example 50, N-[(5-{(6-phenyl-1,3-benzothiazol-2-yl) [(3,3,3-trifluoropropyl)sulfonyl]methyl}-1,3,4-oxadiazol-2-yl)methyl]sulfuric diamide]",< 10
7,"NS(=O)(=O)NCc1nnc(C(c2nc3ccc(-c4ccccc4)cc3s2)S(=O)(=O)Cc2cc(Cl)cc(Cl)c2)o1 (stereo not drawn) [Example 59, N-((5-(((3,5-dichlorobenzyl)sulfonyl)(6-phenyl-1,3-benzothiazol-2-yl)methyl)-1,3,4-oxadiazol-2-yl)methyl)sulfamide]",< 10
8,"CC(c1nnc(CNS(N)(=O)=O)o1)c1nc2ccc(-c3ccc(F)nc3)cc2s1 (stereo not drawn) [Reference 3, N-((5-(1-(6-(6-Fluoro-3-pyridinyl)-1,3-benzothiazol-2-yl)ethyl)-1,3,4-oxadiazol-2-yl)methyl)sulfamide, reference compound]",6520
9,"CC1(Cc2nnc(C(c3nc4ccc(-c5ccnc(F)c5)cc4s3)S(C)(=O)=O)o2)NC(=O)NC1=O (single isomer, unassigned; isomer b) [Example 12, 5-((5-((6-(2-fluoropyridin-4-yl)benzo[d]thiazol-2-yl)(methylsulfonyl)methyl)-1,3,4-oxadiazol-2-yl)methyl)-5-methylimidazolidine-2,4-dione (Isomer B)]",54
10,CN(Cc1nnc(C(c2nc3ccc(-c4ccccc4)cc3s2)S(=O)(=O)Cc2ccccc2)o1)S(N)(=O)=O (stereo not drawn) [Example 81],32
11,"O=S(=O)(O)Cc1nnc(C(c2nc3ccc(-c4ccccc4)cc3s2)S(=O)(=O)Cc2ccc(F)cc2)o1 (stereo not drawn) [Example 34, (5-(((4-fluorobenzyl)sulfonyl)(6-phenylbenzo [d]thiazol-2-yl)methyl)-1,3,4-oxadiazol-2-yl)methanesulfonic acid]",131
12,"CC(C)S(=O)(=O)C(c1nnc(CC2SC(=O)NC2=O)o1)c1nc2c(F)cc(-c3ccccc3)cc2s1 (stereo not drawn) [Example 95, 5-((5-((4-fluoro-6-phenyl-benzo[d]thiazol-2-yl) (isopropylsulfonyl)methyl)-1,3,4-oxadiazol-2-yl)methyl)thiazolidine-2,4-dione]",< 10
13,"CS(=O)(=O)C(c1nnc(CC2SC(=O)NC2=O)o1)c1nc2ccc(-c3ccc(C(=O)N4CCOCC4)cc3)cc2s1 (stereo not drawn) [Example 2, 5-((5-((methylsulfonyl)(6-(4-(4-morpholinylcarbonyl)phenyl)-1,3-benzothiazol-2-yl)methyl)-1,3,4-oxadiazol-2-yl)methyl)-1,3-thiazolidine-2,4-dione]",< 10
14,"CC1(Cc2nnc(C(c3nc4ccc(-c5ccc(F)nc5)cc4s3)S(=O)(=O)Cc3ccccc3)o2)SC(=O)NC1=O (single isomer, unassigned; isomer a) [Example 1, 5-((5-((Benzylsulfonyl)(6-(6-fluoropyridin-3-yl)benzo[d]thiazol-2-yl)methyl)-1,3,4-oxadiazol-2-yl)methyl)-5-methylthiazolidine-2,4-dione (Isomer A)]",< 10
15,"O=C1NC(=O)C(Cc2nnc(C(c3nc4cc(F)c(-c5ccccc5)cc4s3)S(=O)(=O)Cc3ccccc3)o2)S1 (stereo not drawn) [Example 91, 5-((5-((benzylsulfonyl) (5-fluoro-6-phenyl-benzo[d]thiazol-2-yl)methyl)-1,3,4-oxadiazol-2-yl)methyl) thiazolidine-2,4-dione]",< 10
16,"NS(=O)(=O)NCc1nnc(C(c2nc3ccc(-c4ccccc4)cc3s2)S(=O)(=O)CCCC(F)(F)F)o1 (stereo not drawn) [Example 63, N-[(5-{(6-phenyl-1,3-benzothiazol-2-yl) [(4,4,4-trifluorobutyl)sulfonyl]methyl}-1,3,4-oxadiazol-2-yl)methyl] sulfuric diamide]",< 10
